The values that follow come from patent publication US20040048791A1, “Method for treating neoplastic cells using cycloprodigiosin or salt thereof” (priority 2002, published 2004).

The test system of experiment [1] is IL-8 promoter. In words: IL-8 promoter luciferase assay (pIL-8Luc) in HeLa cells. Format: cell-based. Particulars: TNFα 20 ng/ml 4 hours, FIG. 7. The protocol:
Now in order to analyze the effect of cPrG-HCl on IL-8 gene expression which is controlled by transcription factors such as NF-κB and AP-1, luciferase assay was carried out using a reporter plasmid (pIL-8Luc) in which the luciferase gene is bound downstream of the IL-8 promoter region. In the IL-8 promoter, NF-κB, AP-1, and NF-IL6 binding sequences are present.
The pIL-8Luc was incorporated into HeLa cells by transfection. After 24 hours, the cells were pretreated with cPrG-HCl at a specified concentration for 1 hour and then stimulated with TNFα (20 ng/ml) for 4 hours, after which luciferase activity was measured.

Experiment [2] deals with AP-1. Particulars: earlier abstract of the inventors (Kamata et al., 2000); cited from earlier work.
In experiment [3] the test system is NF-κB. Kind of experiment: EMSA of NF-κB DNA binding activity in nuclear extract. Type of experiment: cell-based. The protocol:
Electrophoretic mobility shift assay (EMSA): Nuclear extracts were prepared by the method of Schreiber, et al (Schreiber, E., Matthias, P., Muller, M. M. and Schaffner, W. (1989) Nucleic Acids Res. 17, 6419). Briefly, cells were solubilized with a buffer (10 mM HEPES-NaOH, pH 7.9, 10 mM KCl, 0.1 mM EDTA, 0.1 mM EGTA, 0.4% NP-40, 0.5 mM PMSF, 1 μg/ml aprotinin, 1 μg/ml leupeptin, 1 μg/ml pepstatin, 1 mM DTT), and then centrifuged at 10,000 rpm for 15 min. The pellets were resuspended in a buffer (20 mM HEPES-NaOH, pH 7.9, 400 mM NaCl, 1 mM EDTA, 1 mM EGTA, 1 mM PMSF, 1 μg/ml aprotinin, 1 μg/ml leupeptin, 1 μg/ml pepstatin, 1 μg/ml chymostatin, 1 μg/ml antipain, 1 mM DTT), and then centrifuged at 15,000 rpm for 15 min. […] The samples were electrophoresed on an 8% polyacrylamide gel and analyzed by an Imaging plate (Fuji Film).
In order to find out the mechanism of NF-κB suppression by cPrG-HCl, the effect on the signal transduction system, which functions upstream of NF-κB, was analyzed. […] Next, the effect of cPrG-HCl on phosphorylation and degradation of IκB was analyzed by Western blotting using anti-IκB antibody (FIG. 2E). […] Accordingly, nuclear translocation of NF-κB was analyzed by Western blotting using p65 and p50 which are components of NF-κB (FIG. 2F). […] Further, the state of NF-κB activation in the nucleus was analyzed by EMSA (electrophoretic mobility shift assay) (FIG. 2G). […]
A general note: Mobility shift assays separate free from complexed probe on a gel.

The target of experiment [4] is T1, IKK (Homo sapiens, UniProt O14920+O15111).
T1 construct: host or cells: HeLa cells (inferred)
T1 sequence (O15111 whole entry): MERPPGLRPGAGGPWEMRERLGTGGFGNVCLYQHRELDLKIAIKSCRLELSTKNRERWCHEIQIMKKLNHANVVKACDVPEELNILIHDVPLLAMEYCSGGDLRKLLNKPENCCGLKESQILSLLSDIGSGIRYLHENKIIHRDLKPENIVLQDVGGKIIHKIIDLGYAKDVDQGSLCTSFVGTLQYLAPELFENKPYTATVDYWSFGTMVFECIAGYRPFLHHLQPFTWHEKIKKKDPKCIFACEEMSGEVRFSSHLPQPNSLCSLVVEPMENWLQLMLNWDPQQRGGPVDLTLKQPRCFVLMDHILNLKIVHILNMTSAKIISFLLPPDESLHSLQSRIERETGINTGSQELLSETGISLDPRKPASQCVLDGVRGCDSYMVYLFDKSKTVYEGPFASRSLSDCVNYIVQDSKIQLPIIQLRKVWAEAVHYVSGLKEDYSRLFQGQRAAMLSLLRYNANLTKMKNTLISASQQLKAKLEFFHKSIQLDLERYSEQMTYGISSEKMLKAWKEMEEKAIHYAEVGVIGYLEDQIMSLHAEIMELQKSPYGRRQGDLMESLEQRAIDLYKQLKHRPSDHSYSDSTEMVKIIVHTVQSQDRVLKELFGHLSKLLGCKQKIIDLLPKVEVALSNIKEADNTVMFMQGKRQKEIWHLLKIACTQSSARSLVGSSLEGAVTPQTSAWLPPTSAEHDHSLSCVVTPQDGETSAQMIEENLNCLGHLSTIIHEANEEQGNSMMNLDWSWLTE
T1 sequence (O14920 whole entry): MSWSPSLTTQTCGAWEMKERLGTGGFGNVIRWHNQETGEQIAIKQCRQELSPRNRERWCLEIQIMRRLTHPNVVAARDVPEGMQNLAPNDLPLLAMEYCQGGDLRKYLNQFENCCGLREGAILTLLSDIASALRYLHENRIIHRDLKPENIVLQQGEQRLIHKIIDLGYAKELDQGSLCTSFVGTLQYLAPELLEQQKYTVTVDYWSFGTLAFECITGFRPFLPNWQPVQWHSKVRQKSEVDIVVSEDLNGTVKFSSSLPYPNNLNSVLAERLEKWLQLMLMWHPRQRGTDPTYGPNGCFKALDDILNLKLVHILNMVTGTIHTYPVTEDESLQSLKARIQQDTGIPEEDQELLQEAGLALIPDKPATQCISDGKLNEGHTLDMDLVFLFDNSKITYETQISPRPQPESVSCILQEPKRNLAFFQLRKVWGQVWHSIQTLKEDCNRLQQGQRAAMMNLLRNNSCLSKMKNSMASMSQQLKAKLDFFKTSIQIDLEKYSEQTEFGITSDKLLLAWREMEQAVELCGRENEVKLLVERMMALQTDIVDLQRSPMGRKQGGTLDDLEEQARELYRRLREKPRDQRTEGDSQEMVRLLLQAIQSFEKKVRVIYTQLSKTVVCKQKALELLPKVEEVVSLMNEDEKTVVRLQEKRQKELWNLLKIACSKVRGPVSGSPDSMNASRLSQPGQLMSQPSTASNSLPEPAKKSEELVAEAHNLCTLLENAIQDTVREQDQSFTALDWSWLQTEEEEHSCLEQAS
T1 sequence (Q9Y6K9 whole entry partner): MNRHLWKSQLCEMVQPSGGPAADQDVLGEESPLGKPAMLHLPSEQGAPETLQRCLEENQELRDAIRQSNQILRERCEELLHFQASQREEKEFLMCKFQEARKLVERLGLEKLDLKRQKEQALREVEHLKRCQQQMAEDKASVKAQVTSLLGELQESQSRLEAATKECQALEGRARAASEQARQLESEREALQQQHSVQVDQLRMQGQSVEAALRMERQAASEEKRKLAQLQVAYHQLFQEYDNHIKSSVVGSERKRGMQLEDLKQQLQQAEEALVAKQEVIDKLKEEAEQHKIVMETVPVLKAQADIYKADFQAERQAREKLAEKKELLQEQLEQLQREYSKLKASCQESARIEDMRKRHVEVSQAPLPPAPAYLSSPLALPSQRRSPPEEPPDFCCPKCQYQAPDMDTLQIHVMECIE
Particulars: earlier abstract of the inventors (Kamata et al., 2000); cited from earlier work.

In experiment [5] the test system is AP-1. In words: AP-1 luciferase reporter assay (pAPLuc) in HeLa cells. Format: cell-based. The method, then:
In the same manner as described in Experimental example 1, HeLa cells were transfected with the AP-1 reporter gene plasmid pAPLuc. After 20 hours, the cells were pretreated with cPrG-HCl (1 μM) for 1 hour and then stimulated with TNFα (20 ng/ml) or PMA (1 μg/ml) for 4 hours, after which, luciferase activity was measured. Each activity was corrected for the amount of protein.
Background: In a reporter assay the amount or activity of a reporter protein is the signal.

Experiment [6] has as its system CMV promoter. In words: CMV promoter-dependent luciferase gene expression (control). The note with it: FIG. 2B. Type of experiment: cell-based. The protocol:
Luciferase gene reporter assay and Kinase assays of IKK: HeLa cells were transfected with the reporter plasmids described above using Lipofectin (GIBCO BRL). After 24-48 hr, the luciferase activity was determined using the Luciferase Assay System (Promega). The kinase activity of IKKα and IKKβ were analyzed by immune complex kinase assay as described previously (Oka, S., Kamata, H., Kamata, K., Yagisawa, H. and Hirata, H. (2000) FEBS Lett. 472, 196-202). The substrates was using GST-IκBα(1-55) or GST-p65(399-551).

Experiment [7] concerns NF-κB. Particulars: earlier abstract of the inventors (Kamata et al., 2000); cited from earlier work.
The target of experiment [8] is casein kinase II (CKII) (Homo sapiens, UniProt P68400). Kind of experiment: Casein kinase II activity in vitro. Format: biochemical. Particulars: FIG. 12, hydrochloride. The source says:
Accordingly, in order to identify the p65 kinase which cPrG-HCl suppressed, the effect of cPrG-HCl on PKA (FIG. 13), casein kinase II (CKII) (FIG. 12), and IκB kinase (IKK) (FIG. 14) was studied in vitro.

Entries after “also recorded” stand apart in the source; their conditions may differ. Where a name gives a salt, the structure may show the parent alone.

Chain of casein kinase II (CKII) (P68400 whole entry): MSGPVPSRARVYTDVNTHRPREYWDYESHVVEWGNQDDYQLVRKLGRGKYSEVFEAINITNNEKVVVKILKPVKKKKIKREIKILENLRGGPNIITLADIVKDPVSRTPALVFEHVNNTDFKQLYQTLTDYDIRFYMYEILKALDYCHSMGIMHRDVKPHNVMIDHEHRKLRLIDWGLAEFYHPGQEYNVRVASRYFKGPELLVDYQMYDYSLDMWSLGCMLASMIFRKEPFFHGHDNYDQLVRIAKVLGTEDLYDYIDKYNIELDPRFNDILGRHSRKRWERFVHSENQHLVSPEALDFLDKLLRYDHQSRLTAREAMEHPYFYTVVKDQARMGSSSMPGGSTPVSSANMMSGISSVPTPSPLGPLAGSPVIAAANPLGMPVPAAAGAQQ

As to `COC1=CC(c2ccc[nH]2)=N/C1=C\c1[nH]c(C)c2c1C(C)CCC2` (stereo not shown) [cPrG-HCl, Cycloprodigiosin hydrochloride], in experiment [1], the “IL-8 promoter-dependent transcriptional activity induced by TNFα” value is “markedly suppressed”. Further, the “gene expression induction by AP-1” value in experiment [2] is given as “significantly suppressed”. The “DNA binding activation of NF-κB” value in experiment [3] (PMA stimulation, FIG. 3B) was “inhibited neither”. The “DNA binding activity of NF-κB” value in experiment [3] (TNFα stimulation, FIG. 2G) is recorded as “did not suppress”. The IKK activation entry in experiment [4] is on record as “no suppressive effect”. In experiment [5] (HeLa cells, 1 μM, TNFα (20 ng/ml) or PMA (1 μg/ml), FIG. 5), the AP-1 transcriptional activity result is listed as “significantly suppressed”. In addition, in experiment [5] (in the presence of imidazole), the “PMA-induced AP-1 transcriptional activation” value was “suppressed”. Further, the “expression of the CMV promoter-dependent luciferase gene” value in experiment [6] is listed as “did not inhibit”. Moreover, the “gene expression induction by NF-κB” value in experiment [7] was “significantly suppressed”. In experiment [8], the “effect on casein kinase II (CKII) activity” value was “does not directly suppress; also recorded: no suppressive effect”.
